Assay results taken from PMC9599641, “TNP Analogues Inhibit the Virulence Promoting IP3-4 Kinase Arg1 in the Fungal Pathogen Cryptococcus neoformans” (Biomolecules, 2022).

Key:
[1] = biological target: HsIPMK (Homo sapiens, UniProt Q8NFU5); experiment: Kinase-Glo enzyme inhibition assay, recombinant HsIPMK; further: 6 ng/µL enzyme; type: biochemical; parameters: GST (N, cleaved yes); made in house; host or cells: E. coli BL21 (DE3); plasmid made by GenScript
Experimental: (§1) The 2,6-disubstituted purine compounds are ATP-competitive IPK inhibitors. […] The amount of IP3 and kinase used for each recombinant enzyme was determined following the manufacturer’s instructions, and this concentration was used to assess the inhibitory properties of TNP analogues against each of the recombinant enzymes.
(§2) The analogues were dissolved in DMSO. For the assay, the inhibitors were added to the reaction mixture to achieve a final concentration of 50 µM in 5% DMSO (1:20 dilution). To achieve inhibitor concentrations lower than 50 µM in the assay, the inhibitor stock was first serially diluted two-fold in DMSO and added to the reaction mixture, to achieve concentrations ranging between 0.8 μM and 50 µM in 5% DMSO. Once all analogues and their dilution series had been added, the reaction was started by adding an optimal amount of recombinant IP3-4K enzyme. The reaction was stopped after 10-min incubation at room temperature by adding a 50 µL of Kinase-Glo® reagent. The mixture was incubated at room temperature in the dark for 10–15 min. Luminescence (RLU) was measured using a SpectraMax iD5 and an integration time of 0.5 s. Percent enzyme activity was defined as (RLUnegative − RLUsample)/(RLUnegative − RLUpositive) × 100. ‘Positive’ refers to 100% enzyme activity (no inhibitor used as the positive control), while ‘negative’ refers to 0% enzyme activity (no enzyme used as the negative control).
(§3) Next, we determined the inhibitory properties of TNP. TNP is an ATP-competitive inhibitor [34]. […] IP3 and enzyme concentrations were also optimised following the manufacturer’s instructions. […] This optimal amount of IP3 was then used to test varying concentrations of the kinase ranging from 0 to 20 ng/µL. The amount of kinase that produced luminescence values in the linear range of the kinase titration curve was deemed to be the optimal kinase amount.

[2] = biological target: CnArg1 (IP3-4K from C. neoformans) (Cryptococcus neoformans var. grubii, UniProt J9W3G0); experiment: Kinase-Glo enzyme inhibition assay, recombinant CnArg1; type: biochemical; settings: 10 µM ATP, 50 µM IP3, 2.5 ng/µL enzyme, 10 min, room temperature, 5% DMSO; mean ± SEM
Experimental: as §1, §2, §3

[3] = tested on: CnArg1 (IP3-4K from C. neoformans); experiment: as above; type: biochemical; settings: selectivity, ratio higher than 1 = more selective for CnArg1
Experimental: as §1, §2, §3

[4] = biological target: CnArg1 (Cryptococcus neoformans var. grubii, UniProt J9W3G0); experiment: Surface plasmon resonance (SPR) binding to immobilised CnArg1; settings: 6.25–200 µM, 10 °C, steady-state affinity, mean ± SEM
Experimental: SPR was carried out on a Biacore T200 (Cytiva, Marlborough, MA, USA). A streptavidin surface was prepared by amine coupling streptavidin to a CM5 chip using standard procedures in 20 mM HEPES, 150 mM NaCl pH 7.5 at 37 °C. Briefly, the surface was activated by injection of 1:1 NHS:EDC (N-ethyl-N’-(3-(dimethylamino)propyl)carbodiimide/N-hydroxysuccinimide) followed by a 7-min injection of 100 µg/mL streptavidin in 10 mM sodium acetate (pH 4.5) at a flow rate of 2 µL/min. Unreacted groups on the surface were blocked by injection of 1 M ethanolamine (pH 8.0). Purified recombinant CnArg1 was N-terminally biotinylated and immobilised to a level of ~4000 RU onto the streptavidin surface at 25 °C in 20 mM HEPES, 200 mM NaCl, 5 mM MgCl2 (pH 7.5) at a flow rate of 2 µL/min.
For analysis, compounds were prepared to 50 mM in 100% DMSO and diluted to the desired concentration in SPR running buffer; 20 mM HEPES (pH 7.5), 200 mM NaCl, 5 mM MgCl2, 5% DMSO. Analysis was carried out using multi-cycle kinetics over a compound concentration range of 6.25–200 µM in running buffer at 10 °C, with an association time of 60 s and a dissociation time of 120 s. Data were reference subtracted, and a solvent correction applied. Analysis was carried out using Biacore T200 Evaluation Software and all data fit to a 1:1 Langmuir binding isotherm.

CnArg1, sequence (J9W3G0 entry or part of it): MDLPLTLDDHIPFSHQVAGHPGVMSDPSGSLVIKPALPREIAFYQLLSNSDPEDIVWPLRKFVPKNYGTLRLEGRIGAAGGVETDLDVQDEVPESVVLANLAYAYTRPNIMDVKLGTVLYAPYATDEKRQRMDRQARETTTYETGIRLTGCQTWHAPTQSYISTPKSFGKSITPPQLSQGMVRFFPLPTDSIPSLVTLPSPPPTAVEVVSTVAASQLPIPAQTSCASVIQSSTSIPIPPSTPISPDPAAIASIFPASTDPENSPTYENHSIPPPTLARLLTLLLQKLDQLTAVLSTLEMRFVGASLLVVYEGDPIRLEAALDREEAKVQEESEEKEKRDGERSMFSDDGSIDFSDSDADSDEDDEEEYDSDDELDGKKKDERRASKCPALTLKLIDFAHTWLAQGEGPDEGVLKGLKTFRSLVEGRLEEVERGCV
CnArg1 (IP3-4K from C. neoformans) (Cryptococcus neoformans var. grubii, UniProt J9W3G0), sequence (J9W3G0 entry or part of it): as above
HsIPMK, sequence (Q8NFU5 whole entry): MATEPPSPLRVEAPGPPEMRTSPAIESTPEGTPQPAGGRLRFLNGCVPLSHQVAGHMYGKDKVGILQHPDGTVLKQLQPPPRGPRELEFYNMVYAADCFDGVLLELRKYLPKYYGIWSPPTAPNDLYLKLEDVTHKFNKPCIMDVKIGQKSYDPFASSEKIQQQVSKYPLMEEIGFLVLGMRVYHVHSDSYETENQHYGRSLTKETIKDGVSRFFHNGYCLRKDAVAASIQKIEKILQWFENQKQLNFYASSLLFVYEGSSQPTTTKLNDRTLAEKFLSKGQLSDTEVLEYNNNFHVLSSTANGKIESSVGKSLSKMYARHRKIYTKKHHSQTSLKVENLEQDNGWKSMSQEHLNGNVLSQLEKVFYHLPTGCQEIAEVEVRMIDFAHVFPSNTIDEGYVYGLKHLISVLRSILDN

## COCCNc1nc(Nc2ccc(O)cc2)nc2[nH]cnc12 [Compound 37]
[1]
  IC50: 7 ± 1 µM
[2]
  IC50: 17 ± 2 µM
[3]
  HsIPMK/CnArg1 IC50 ratio: 0.4
[4]
  KD: No binding
